Consider 38 molecules from ChEMBL document CHEMBL2331202, “Synthesis, Optimization, and Evaluation of Novel Small Molecules as Antagonists of WDR5-MLL Interaction” (ACS Med Chem Lett, 2013).

Structures are written as SMILES. pIC50, pKd: −log10 of the molar value. A value given as a limit tells only on which side of the number the result lay.

Experiment [1] deals with T1, WD repeat-containing protein 5 (Homo sapiens, UniProt P61964).
Experiment [2] has as its target T1, WD repeat-containing protein 5. In words: Antagonist activity at WDR5 (unknown origin).

In general, pKd refers to −log10 of the Kd, conventionally taken in molar units. Higher therefore signals a low Kd. As to `COc1cccc(C(=O)Nc2cc([N+](=O)[O-])ccc2N2CCN(C)CC2)c1`, in experiment [1], the pKd is 5.85.

`O=C(Nc1cc([N+](=O)[O-])ccc1N1CCOCC1)c1ccccc1Cl` had a pKd in experiment [1] of under 4.70. Still for that read-out and setting: the value for `CN1CCN(c2ccc(C(=O)O)cc2NC(=O)c2ccccc2Cl)CC1` was under 5.00; that for `CN1CCN(c2ccc(-c3ccncc3)cc2NC(=O)c2ccccc2Cl)CC1` was 5.66; that for `CN1CCN(c2ccc([N+](=O)[O-])cc2NC(=O)c2cccnc2)CC1` was under 5.00. On the same count and under the same terms, the value for `NC1CCN(c2ccc([N+](=O)[O-])cc2NC(=O)c2ccccc2Cl)CC1` was under 4.70. `CC(=O)Nc1cc([N+](=O)[O-])ccc1N1CCN(C)CC1` showed a pKd in experiment [1] of under 5.00.

In experiment [1], `CN1CCN(c2ccc([N+](=O)[O-])cc2NC(=O)c2cccc3ncccc23)CC1` showed a pKd of 5.82. Consider `CN1CCN(c2ccc(-c3ccco3)cc2NC(=O)c2ccccc2Cl)CC1`, for which, in experiment [1], the pKd was 5.46. Molecule `CN1CCN(c2ccc([N+](=O)[O-])cc2NC(=O)c2ccco2)CC1` showed a pKd in experiment [1] of under 5.00. `COC(=O)c1ccc(N2CCN(C)CC2)c(NC(=O)c2ccccc2Cl)c1` had a pKd in experiment [1] of 5.18. Take `O=C(Nc1cc([N+](=O)[O-])ccc1F)c1ccccc1Cl`: in experiment [1], the pKd is under 4.70. In experiment [1], `CN1CCN(c2ccc([N+](=O)[O-])cc2NC(=O)c2cccc(Cl)c2)CC1` showed a pKd of 5.74. In experiment [1], `CN1CCN(c2ccc([N+](=O)[O-])cc2NC(=O)C2CCCCC2)CC1` gave a pKd of under 5.00. In the case of `CN(C)C1CCN(c2ccc([N+](=O)[O-])cc2NC(=O)c2ccccc2Cl)C1` (stereo not drawn), the pKd in experiment [1] was 4.80. On the same count and under the same terms, in the case of `CN(C)CCN(C)c1ccc([N+](=O)[O-])cc1NC(=O)c1ccccc1Cl` it was under 4.70; in that of `CN1CCN(c2ccc([N+](=O)[O-])cc2NC(=O)Cc2ccccc2)CC1`, under 5.00. As for `CN1CCN(c2ccc([N+](=O)[O-])cc2NC(=O)c2ccccc2)CC1`, in experiment [1], the negative-log Kd (pKd) is 5.24. `CN1CCN(c2ccc(C3CC3)cc2NC(=O)c2ccccc2Cl)CC1` showed a pKd in experiment [1] of under 5.00.

In turn, `CN1CCN(c2ccc([N+](=O)[O-])cc2NC(=O)c2cccc3ccccc23)CC1` had a pKd in experiment [1] of 6.15. On the same count and under the same terms, in the case of `Cc1cccc(C(=O)Nc2cc([N+](=O)[O-])ccc2N2CCN(C)CC2)c1` it was 5.96.

A word on the pIC50: it is the IC50 on a negative log10 scale, so that one unit is a factor of ten. Read a low pIC50 as a large IC50. In turn, `O=C(O)c1ccc2ccccc2c1-c1c(C(=O)O)ccc2ccccc12` had a pIC50 in experiment [2] of 5.22. In experiment [1], `NC1CCN(c2ccc([N+](=O)[O-])cc2NC(=O)c2ccccc2Cl)C1` (stereo not drawn) gave a pKd of under 4.70. `CN1CCN(c2ccc(N)cc2NC(=O)c2ccccc2Cl)CC1`: the pKd in experiment [1] is under 5.00. Take `CC1CN(c2ccc([N+](=O)[O-])cc2NC(=O)c2ccccc2Cl)CCN1C` (stereo not drawn): the pKd in experiment [1] is 5.33. Take `O=C(Nc1cc([N+](=O)[O-])ccc1N1CCCCC1)c1ccccc1Cl`: the pKd in experiment [1] is under 4.70. `O=C(Nc1cc([N+](=O)[O-])ccc1N1CCNCC1)c1ccccc1Cl` had a negative logarithm of the Kd (pKd) in experiment [1] of under 4.70. Molecule `CN1CCN(c2ccc([N+](=O)[O-])cc2NC(=O)c2cccc(O)c2)CC1` had a pKd in experiment [1] of under 5.00.

For `CN1CCN(c2ccc([N+](=O)[O-])cc2NC(=O)c2ccc(F)cc2Cl)CC1`, in experiment [1], the pKd was 6.20. Regarding `CN1CCN(c2ccc(C(F)(F)F)cc2NC(=O)c2ccccc2Cl)CC1`, the pKd in experiment [1] was under 5.00. In turn, `CN1CCN(c2ccc([N+](=O)[O-])cc2NC(=O)c2ccc(F)cc2)CC1` gave a pKd in experiment [1] of 5.51.

Molecule `COc1cc(C(=O)Nc2cc([N+](=O)[O-])ccc2N2CCN(C)CC2)ccc1F` gave a pKd in experiment [1] of 6.17.

As to `CN1CCN(c2ccc(Br)cc2NC(=O)c2ccccc2Cl)CC1`, the pKd in experiment [1] is under 5.00. For `Cc1cc(C(=O)Nc2cc([N+](=O)[O-])ccc2N2CCN(C)CC2)ccc1F`, the negative-log Kd (pKd) in experiment [1] was 6.23. As to `CN(C)C1CCN(c2ccc([N+](=O)[O-])cc2NC(=O)c2ccccc2Cl)CC1`, the pKd in experiment [1] was under 4.70. For the molecule `CN1CCCN(c2ccc([N+](=O)[O-])cc2NC(=O)c2ccccc2Cl)CC1`, the pKd in experiment [1] is 5.15. In experiment [1], `CCN1CCN(c2ccc([N+](=O)[O-])cc2NC(=O)c2ccccc2Cl)CC1` gave a pKd of under 4.70.

Take `Cc1cccc(C(=O)Nc2cc([N+](=O)[O-])ccc2N2CCN(C)CC2)c1Cl`: the pKd in experiment [1] is 5.96.
